The values that follow come from US9862716B2, “TRKA kinase inhibitors, compositions and methods thereof” (Merck Sharp & Dohme Corp., priority 2014, dated 2018).

A word on the IC50: it is the concentration that inhibits the measured activity by half.

For this assay, the target named is T1, human TrkA receptor (Homo sapiens, UniProt P04629).
T1 construct: host or cells: U2OS cells (PathHunter cell line)
T1 sequence (P04629 33-796): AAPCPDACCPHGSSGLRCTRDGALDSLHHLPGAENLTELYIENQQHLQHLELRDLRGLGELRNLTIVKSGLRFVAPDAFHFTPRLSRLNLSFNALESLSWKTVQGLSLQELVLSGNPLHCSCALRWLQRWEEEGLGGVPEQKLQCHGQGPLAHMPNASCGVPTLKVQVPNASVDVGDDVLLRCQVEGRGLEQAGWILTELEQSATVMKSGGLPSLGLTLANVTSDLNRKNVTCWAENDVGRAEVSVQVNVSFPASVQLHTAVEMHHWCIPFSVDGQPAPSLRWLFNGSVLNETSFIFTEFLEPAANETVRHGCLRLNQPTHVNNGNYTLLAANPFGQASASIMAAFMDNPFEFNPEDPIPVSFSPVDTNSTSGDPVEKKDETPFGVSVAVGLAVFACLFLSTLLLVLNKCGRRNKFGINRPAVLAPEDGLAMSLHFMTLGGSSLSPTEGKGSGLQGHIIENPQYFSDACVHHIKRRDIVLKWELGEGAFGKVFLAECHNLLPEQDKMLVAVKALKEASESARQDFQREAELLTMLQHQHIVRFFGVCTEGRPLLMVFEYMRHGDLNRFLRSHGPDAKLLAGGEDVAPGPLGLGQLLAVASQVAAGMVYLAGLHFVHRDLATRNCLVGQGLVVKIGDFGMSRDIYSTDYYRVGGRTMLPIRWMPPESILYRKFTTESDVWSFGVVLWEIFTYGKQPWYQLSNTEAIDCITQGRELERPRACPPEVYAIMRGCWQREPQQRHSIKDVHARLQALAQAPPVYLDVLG
The assay is described as follows: DiscoverX PathHunter TrkA functional assay (NGF-stimulated U2OS cells). As to conditions: U2OS cells expressing human TrkA-PK, Shc1-EA and p75NTR; compound 1 h, then NGF at ~80% of maximal response for 3 h; luminescence. The assay is classed as cell-based.
Description: TrkA functional activity was measured using a DiscoverX PathHunter assay. In this assay, U2OS cells express the human TrkA receptor as a fusion with the weakly complementing fragment of B-galactosidase, which DiscoverX calls “Prolink (PK)”; additionally, Shc1 is fused with a larger fragment, which is called “Enzyme Acceptor (EA)”. Activation of the TrkA receptor, upon NGF addition, results in the kinase domain being phosphorylated, resulting in subsequent recruitment of Shc1-EA protein. That recruitment results in an active B-galactosidase enzyme that is detected by addition of a chemiluminescent substrate. The human p75^NTR protein was also expressed as a co-receptor for NGF.
All reagents were purchased from DiscoverX, except for the receptor agonists (NGF, BDNF, NT3) which were purchased from Peprotech. Cells were expanded and frozen into cryovials, and stored in the vapor phase of liquid nitrogen, and thawed immediately before use. Thawed cells were added to a 384-well plate at 7500 cells/well, and allowed to incubate overnight. Compound at various concentrations was added the following morning and allowed to incubate on cells for 1 h. Then, NGF was added at a concentration sufficient to elicit ˜80% of a maximal response and allowed to incubate for 3 h at ambient temperature. DiscoverX PathHunter detection reagent was then added and the plate was further incubated for 1 h in the dark. The plate was then read via luminescence on the Perkin Elmer Envision.
Consider `Cn1ccc(-c2cc(C(=O)Nc3c(-c4ccccc4)nc4cc(C5(O)CC5)ccn34)ccc2C(F)(F)F)n1` [Compound 69, N-[7-(1-hydroxycyclopropyl)-2-phenylimidazo[1,2-a]pyridin-3-yl]-3-(1-methyl-1H-pyrazol-3-yl)-4-(trifluoromethyl) benzamide], for which the IC50 stood at 3.4 nM.

`Cn1ccc(-c2cc(C(=O)Nc3c(-c4ccccc4)nc4cc(C(C)(C)O)ccn34)c(Cl)cc2C(F)(F)F)n1` [Compound 70, 2-chloro-N-[7-(1-hydroxy-1-methylethyl)-2-phenylimidazo[1,2-a]pyridin-3-yl]-5-(1-methyl-1H-pyrazol-3-yl)-4-(trifluoromethyl) benzamide] came in with an IC50 of 1.2 nM.

For `Cc1ccnc(-c2cc(C(=O)Nc3c(-c4ccccc4)nc4cc(C(C)(C)O)ccn34)c(Cl)cc2C(F)(F)F)n1` [Compound 71, 2-chloro-N-[7-(1-hydroxy-1-methylethyl)-2-phenylimidazo[1,2-a]pyridin-3-yl]-5-(4-methylpyrimidin-2-yl)-4-(trifluoromethyl) benzamide], the IC50 amounted to 7.6 nM.

`Cn1ccc(-c2cc(C(=O)Nc3c(-c4ccccc4)[nH]c4ccccc34)c(F)cc2C(F)(F)F)n1` [Compound 72, 2-fluoro-5-(1-methyl-1H-pyrazol-3-yl)-N-(2-phenyl-1H-indol-3-yl)-4-(trifluoromethyl) benzamide] showed an IC50 of 4.1 nM.

Compound `Cc1cc(C(F)(F)F)c(-c2ccn(C)n2)cc1C(=O)Nc1c(-c2ccccc2)nc2cc(C(C)(C)O)ccn12` [Compound 75, N-[7-(1-hydroxy-1-methylethyl)-2-phenylimidazo[1,2-a]pyridin-3-yl]-2-methyl-5-(1-methyl-1H-pyrazol-3-yl)-4-(trifluoromethyl) benzamide] gave an IC50 of 4.5 nM.

Turning to `O=C(Nc1c(-c2ccccc2)[nH]c2ccccc12)c1cc(-c2ncccn2)c(C(F)(F)F)cc1F` [Compound 76, 2-fluoro-N-(2-phenyl-1H-indol-3-yl)-5-pyrimidin-2-yl-4-(trifluoromethyl) benzamide], the IC50 is 8.2 nM.

Compound `CC(=O)NCc1ccn2c(NC(=O)c3ccc(C(F)(F)F)c(-c4ccn(C)n4)c3)c(-c3ccccc3)nc2c1` [Compound 79, N-{7-[(acetylamino)methyl]-2-phenylimidazo[1,2-a]pyridin-3-yl}-3-(1-methyl-1H-pyrazol-3-yl)-4-(trifluoromethyl) benzamide] returned an IC50 of 8.2 nM.

The compound `Cn1ccc(-c2cc(C(=O)Nc3c(-c4ccccc4)nc4cc(CNC(=O)CO)ccn34)ccc2C(F)(F)F)n1` [Compound 80, N-(7-{[(hydroxyacetyl)amino]methyl}-2-phenylimidazo[1,2-a]pyridin-3-yl)-3-(1-methyl-1H-pyrazol-3-yl)-4-(trifluoromethyl) benzamide] gave an IC50 of 20 nM.

`CNC(=O)NCc1ccn2c(NC(=O)c3ccc(C(F)(F)F)c(-c4ccn(C)n4)c3)c(-c3ccccc3)nc2c1` [Compound 81, N-(7-{[(methylcarbamoyl)amino]methyl}-2-phenylimidazo[1,2-a]pyridin-3-yl)-3-(1-methyl-1H-pyrazol-3-yl)-4-(trifluoromethyl) benzamide] displayed an IC50 of 15 nM.

`COC(=O)NCc1ccn2c(NC(=O)c3ccc(C(F)(F)F)c(-c4ccn(C)n4)c3)c(-c3ccccc3)nc2c1` [Compound 83, methyl{[3-({[3-(1-methyl-1H-pyrazol-3-yl)-4-(trifluoromethyl)phenyl]carbonyl}amino)-2-phenylimidazo[1,2-a]pyridin-7-yl]methyl}carbamate] registered an IC50 of 0.77 nM.

For the compound `Cn1ccc(-c2cc(C(=O)Nc3c(-c4ccccc4)nc4cc(CNS(C)(=O)=O)ccn34)ccc2C(F)(F)F)n1` [Compound 84, 3-(1-methyl-1H-pyrazol-3-yl)-N-(7-{[(methylsulfonyl)amino]methyl}-2-phenylimidazo[1,2-a]pyridin-3-yl)-4-(trifluoromethyl) benzamide], half-maximal inhibition (IC50) required 3.1 nM.

Turning to `O=C(Nc1c(-c2ccccc2)nn2ccccc12)c1cc(-c2ncccn2)c(C(F)(F)F)cc1F` [Compound 85, 2-fluoro-N-(2-phenylpyrazolo[1,5-a]pyridin-3-yl)-5-pyrimidin-2-yl-4-(trifluoromethyl) benzamide], the IC50 was 5 nM.

In the case of `N#Cc1ccc2[nH]c(-c3ccccc3)c(NC(=O)c3cc(-c4ncccn4)c(C(F)(F)F)cc3F)c2c1` [Compound 86, N-(5-cyano-2-phenyl-1H-indol-3-yl)-2-fluoro-5-pyrimidin-2-yl-4-(trifluoromethyl) benzamide], the IC50 amounted to 2.6 nM.

With `Cc1csc(-c2ccn3c(NC(=O)c4ccc(C(F)(F)F)c(-c5ccn(C)n5)c4)c(-c4ccccc4)nc3c2)n1` [Compound 87, 3-(1-methyl-1H-pyrazol-3-yl)-N-[7-(4-methyl-1,3-thiazol-2-yl)-2-phenylimidazo[1,2-a]pyridin-3-yl]-4-(trifluoromethyl) benzamide], the IC50 is 0.68 nM.

`Cn1ccc(-c2cc(C(=O)Nc3c(-c4ccccc4)nc4cc(N5CCOCC5)ccn34)ccc2C(F)(F)F)n1` [Compound 88, 3-(1-methyl-1H-pyrazol-3-yl)-N-(7-morpholin-4-yl-2-phenylimidazo[1,2-a]pyridin-3-yl)-4-(trifluoromethyl) benzamide] had an IC50 of 1.2 nM.

In turn, `Cn1ccc(-c2cc(C(=O)Nc3c(-c4ccccc4)nc4cc(N5CCCC5)ccn34)ccc2C(F)(F)F)n1` [Compound 89, 3-(1-methyl-1H-pyrazol-3-yl)-N-(2-phenyl-7-pyrrolidin-1-ylimidazo[1,2-a]pyridin-3-yl)-4-(trifluoromethyl) benzamide] gave an IC50 of 5 nM.

Take `Cn1ccc(-c2cc(C(=O)Nc3c(-c4ccccc4)nc4cc(N5CCNCC5)ccn34)ccc2C(F)(F)F)n1` [Compound 90, 3-(1-methyl-1H-pyrazol-3-yl)-N-(2-phenyl-7-piperazin-1-ylimidazo[1,2-a]pyridin-3-yl)-4-(trifluoromethyl) benzamide]: the IC50 was 3.8 nM.

`O=C(O)c1ccc2[nH]c(-c3ccccc3)c(NC(=O)c3cc(-c4ncccn4)c(C(F)(F)F)cc3F)c2c1` [Compound 91, 3-({[2-fluoro-5-pyrimidin-2-yl-4-(trifluoromethyl)phenyl]carbonyl}amino)-2-phenyl-1H-indole-5-carboxylic acid] yielded a half-maximal inhibitory concentration (IC50) of 11 nM.

`NC(=O)c1ccc2[nH]c(-c3ccccc3)c(NC(=O)c3cc(-c4ncccn4)c(C(F)(F)F)cc3F)c2c1` [Compound 92, 3-({[2-fluoro-5-pyrimidin-2-yl-4-(trifluoromethyl)phenyl]carbonyl}amino)-2-phenyl-1H-indole-5-carboxamide] had an IC50 of 8.7 nM.

Regarding `Cc1cc(C(F)(F)F)c(-c2ccn(C)n2)cc1C(=O)Nc1c(-c2ccccc2)nc2cc([C@@H](C)O)ccn12` [Compound 93, N-{7-[(1R)-1-hydroxyethyl]-2-phenylimidazo[1,2-a]pyridin-3-yl}-2-methyl-5-(1-methyl-1H-pyrazol-3-yl)-4-(trifluoromethyl) benzamide], the IC50 is 4.7 nM.

In turn, `Cn1ccc(-c2cc(C(=O)Nc3c(-c4ccccc4)nn4ccc(C(C)(C)O)cc34)ccc2C(F)(F)F)n1` [Compound 96, N-[5-(1-hydroxy-1-methylethyl)-2-phenylpyrazolo[1,5-a]pyridin-3-yl]-3-(1-methyl-1H-pyrazol-3-yl)-4-(trifluoromethyl) benzamide] registered an IC50 of 6.7 nM.

As for `Cn1ccc(-c2cc(C(=O)Nc3c(-c4ccccc4)nc4cc(CCO)ccn34)ccc2C(F)(F)F)n1` [Compound 99, N-[7-(2-hydroxyethyl)-2-phenylimidazo[1,2-a]pyridin-3-yl]-3-(1-methyl-1H-pyrazol-3-yl)-4-(trifluoromethyl) benzamide], the IC50 is 2.1 nM.

`Cn1ccc(-c2cc(C(=O)Nc3c(-c4ccccc4)nc4cc(CCN)ccn34)ccc2C(F)(F)F)n1` [Compound 100, N-[7-(2-aminoethyl)-2-phenylimidazo[1,2-a]pyridin-3-yl]-3-(1-methyl-1H-pyrazol-3-yl)-4-(trifluoromethyl) benzamide] showed an IC50 of 13 nM.

`CC(=O)NCCc1ccn2c(NC(=O)c3ccc(C(F)(F)F)c(-c4ccn(C)n4)c3)c(-c3ccccc3)nc2c1` [Compound 101, N-{7-[2-(acetylamino)ethyl]-2-phenylimidazo[1,2-a]pyridin-3-yl}-3-(1-methyl-1H-pyrazol-3-yl)-4-(trifluoromethyl) benzamide] gave an IC50 of 10 nM.

Regarding `Cn1ccc(-c2cc(C(=O)Nc3c(-c4ccccc4)nc4cc(CCNS(C)(=O)=O)ccn34)ccc2C(F)(F)F)n1` [Compound 102, 3-(1-methyl-1H-pyrazol-3-yl)-N-(7-{2-[(methylsulfonyl)amino]ethyl}-2-phenylimidazo[1,2-a]pyridin-3-yl)-4-(trifluoromethyl) benzamide], the IC50 worked out at 4.3 nM.

The compound `Cn1ccc(-c2cc(C(=O)Nc3c(-c4ccccc4)nn4ccc(C(C)(C)O)cc34)c(F)cc2C(F)(F)F)n1` [Compound 103, 2-fluoro-N-[5-(1-hydroxy-1-methylethyl)-2-phenylpyrazolo[1,5-a]pyridin-3-yl]-5-(1-methyl-1H-pyrazol-3-yl)-4-(trifluoromethyl) benzamide] returned an IC50 of 0.94 nM.

Consider `COC(=O)NCCc1ccn2c(NC(=O)c3ccc(C(F)(F)F)c(-c4ccn(C)n4)c3)c(-c3ccccc3)nc2c1` [Compound 104, methyl{2-[3-({[3-(1-methyl-1H-pyrazol-3-yl)-4-(trifluoromethyl)phenyl]carbonyl}amino)-2-phenylimidazo[1,2-a]pyridin-7-yl]ethyl}carbamate], for which the IC50 turned out to be 1.7 nM.

The compound `O=C(Nc1c(-c2ccccc2)nc2ccccn12)c1cc(-c2ncccn2)c(C(F)(F)F)cc1F` [Compound 105, 2-fluoro-N-(2-phenylimidazo[1,2-a]pyridin-3-yl)-5-pyrimidin-2-yl-4-(trifluoromethyl) benzamide] showed an IC50 of 1.4 nM.

Compound `Cn1ccc(-c2cc(C(=O)Nc3c(-c4ccccc4)[nH]c4ccc(C#N)cc34)c(F)cc2C(F)(F)F)n1` [Compound 108, N-(5-cyano-2-phenyl-1H-indol-3-yl)-2-fluoro-5-(1-methyl-1H-pyrazol-3-yl)-4-(trifluoromethyl) benzamide] had an IC50 of 1 nM.
